# Tests used:
# Assay type in all cases: in vivo
# [1] = test system: foxtail, giant (giant foxtail, Setaria faberii); assay: Test A pre-/postemergence: foxtail, giant; details: for Foxtail, Giant plant response rating: visual rating on 0 to 100 scale (0 no effect, 100 complete control), approximately ten days
# Method in brief: (§1)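 Pre: directed soil spray after planting in loam + sand. Post: same formulation (non-phytotoxic solvent + surfactant) on 1–2-leaf plants, 2–10 cm. Greenhouse ~10 d; visual injury 0–100 vs untreated.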
# [2] = test system: wheat (Triticum aestivum); assay: Test A pre-/postemergence: wheat; details: for Wheat plant response rating: visual rating on 0 to 100 scale (0 no effect, 100 complete control), approximately ten days
# Method in brief: as §1
# [3] = test system: morningglory (Ipomoea spp.); assay: Test A pre-/postemergence: morningglory; details: for Morningglory plant response rating: visual rating on 0 to 100 scale (0 no effect, 100 complete control), approximately ten days
# Method in brief: as §1
# [4] = test system: barnyardgrass (Echinochloa crus-galli); assay: Test B flooded paddy: barnyardgrass; details: Flood; 250 g ai/ha; applied to paddy water at 2-leaf stage; visually evaluated after 13 to 15 days
# Method in brief: (§2)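 Flooded-pot test: compound dosed into 3 cm of standing water above soil when plants had two leaves. Visual control ratings (0–100) versus untreated plants after 13–15 d.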
# [5] = test system: corn (Zea mays); assay: Test A pre-/postemergence: corn; details: for Corn plant response rating: visual rating on 0 to 100 scale (0 no effect, 100 complete control), approximately ten days
# Method in brief: as §1
# [6] = test system: velvetleaf (Abutilon theophrasti); assay: Test A pre-/postemergence: velvetleaf; details: for Velvetleaf plant response rating: visual rating on 0 to 100 scale (0 no effect, 100 complete control), approximately ten days
# Method in brief: as §1
# [7] = test system: crabgrass, large (large crabgrass, Digitaria sanguinalis); assay: Test A pre-/postemergence: crabgrass, large; details: for Crabgrass, Large plant response rating: visual rating on 0 to 100 scale (0 no effect, 100 complete control), approximately ten days
# Method in brief: as §1
# [8] = test system: ducksalad (Heteranthera limosa); assay: Test B flooded paddy: ducksalad; details: Flood; 250 g ai/ha; applied to paddy water at 2-leaf stage; visually evaluated after 13 to 15 days
# Method in brief: as §2
# [9] = test system: pigweed (Amaranthus retroflexus); assay: Test A pre-/postemergence: pigweed; details: for Pigweed plant response rating: visual rating on 0 to 100 scale (0 no effect, 100 complete control), approximately ten days
# Method in brief: as §1
# [10] = test system: rice (Oryza sativa); assay: Test B flooded paddy: rice; details: Flood; 250 g ai/ha; applied to paddy water at 2-leaf stage; visually evaluated after 13 to 15 days
# Method in brief: as §2
# [11] = test system: sedge, umbrella (small-flower umbrella sedge Cyperus difformis); assay: Test B flooded paddy: sedge, umbrella; details: Flood; 250 g ai/ha; applied to paddy water at 2-leaf stage; visually evaluated after 13 to 15 days
# Method in brief: as §2
# [12] = test system: barnyardgrass (Echinochloa crus-galli); assay: Test A pre-/postemergence: barnyardgrass; details: for Barnyardgrass plant response rating: visual rating on 0 to 100 scale (0 no effect, 100 complete control), approximately ten days
# Method in brief: as §1
# [13] = Postemergence, 125 g ai/ha, 0 to 100 scale, 0 is no effect, 100 is complete control
# [14] = Preemergence, 125 g ai/ha, 0 to 100 scale where 0 is no effect and 100 is complete control
# [15] = Preemergence, 500 g ai/ha, 0 to 100 scale (0 no effect, 100 complete control)
Compound,"Plant response rating, Foxtail, Giant [1, 13]","Foxtail, Giant plant response rating ([1]; Postemergence, 500 g ai/ha)","Plant response rating, Foxtail, Giant [1, 14]","Plant response rating, Foxtail, Giant [1, 15]","Plant response rating, Wheat [2, 13]","Wheat plant response rating ([2]; Postemergence, 500 g ai/ha)","Plant response rating, Wheat [2, 14]","Plant response rating, Wheat [2, 15]","Plant response rating, Morningglory [3, 13]","Morningglory plant response rating ([3]; Postemergence, 500 g ai/ha)","Plant response rating, Morningglory [3, 14]","Plant response rating, Morningglory [3, 15]","Plant response rating, Barnyardgrass (0 to 100 scale, 0 is no effect, 100 is complete control) [4]","Plant response rating, Corn [5, 13]","Corn plant response rating ([5]; Postemergence, 500 g ai/ha)","Plant response rating, Corn [5, 14]","Plant response rating, Corn [5, 15]","Plant response rating, Velvetleaf [6, 13]","Velvetleaf plant response rating ([6]; Postemergence, 500 g ai/ha)","Plant response rating, Velvetleaf [6, 14]",other results
CC(C)c1nn(-c2ccc(F)cc2)nc1Cc1cccc(C(F)(F)F)c1 [Compound 150],0,0,0,0,0,0,0,0,0,0,0,0,20,0,10,0,0,0,10,0,"Plant response rating, Velvetleaf [6, 15]: 0; Plant response rating, Crabgrass, Large [7, 13]: 0; Crabgrass, Large plant response rating ([7]; Postemergence, 500 g ai/ha): 20; Plant response rating, Crabgrass, Large [7, 14]: 0; Plant response rating, Crabgrass, Large [7, 15]: 0; Plant response rating, Ducksalad (0 to 100 scale, 0 is no effect, 100 is complete control) [8]: 0; Plant response rating, Pigweed [9, 13]: 10; Pigweed plant response rating ([9]; Postemergence, 500 g ai/ha): 50; Plant response rating, Pigweed [9, 14]: 0; Plant response rating, Pigweed [9, 15]: 0; Plant response rating, Rice (0 to 100 scale, 0 is no effect, 100 is complete control) [10]: 0; Plant response rating, Sedge, Umbrella (0 to 100 scale, 0 is no effect, 100 is complete control) [11]: 0; Plant response rating, Barnyardgrass [12, 13]: 0; Barnyardgrass plant response rating ([12]; Postemergence, 500 g ai/ha): 0; Plant response rating, Barnyardgrass [12, 14]: 0; Plant response rating, Barnyardgrass [12, 15]: 0"
CC(C)c1nn(-c2ccc(F)cc2)nc1Cc1ccnc(C(F)(F)F)c1 [Compound 151],10,30,0,20,0,0,0,0,40,70,0,0,0,10,20,0,0,30,50,0,"Plant response rating, Velvetleaf [6, 15]: 0; Plant response rating, Crabgrass, Large [7, 13]: 10; Crabgrass, Large plant response rating ([7]; Postemergence, 500 g ai/ha): 30; Plant response rating, Crabgrass, Large [7, 14]: 0; Plant response rating, Crabgrass, Large [7, 15]: 10; Plant response rating, Ducksalad (0 to 100 scale, 0 is no effect, 100 is complete control) [8]: 0; Plant response rating, Pigweed [9, 13]: 60; Pigweed plant response rating ([9]; Postemergence, 500 g ai/ha): 80; Plant response rating, Pigweed [9, 14]: 10; Plant response rating, Pigweed [9, 15]: 60; Plant response rating, Rice (0 to 100 scale, 0 is no effect, 100 is complete control) [10]: 30; Plant response rating, Sedge, Umbrella (0 to 100 scale, 0 is no effect, 100 is complete control) [11]: 0; Plant response rating, Barnyardgrass [12, 13]: 10; Barnyardgrass plant response rating ([12]; Postemergence, 500 g ai/ha): 20; Plant response rating, Barnyardgrass [12, 14]: 0; Plant response rating, Barnyardgrass [12, 15]: 0"
O=C(c1ccnc(C(F)(F)F)c1)c1nn(-c2ccc(F)cc2)nc1F [Compound 158],0,0,0,0,0,0,0,0,0,10,0,0,0,0,20,0,0,0,0,0,"Plant response rating, Velvetleaf [6, 15]: 0; Plant response rating, Crabgrass, Large [7, 13]: 0; Crabgrass, Large plant response rating ([7]; Postemergence, 500 g ai/ha): 20; Plant response rating, Crabgrass, Large [7, 14]: 0; Plant response rating, Crabgrass, Large [7, 15]: 0; Plant response rating, Ducksalad (0 to 100 scale, 0 is no effect, 100 is complete control) [8]: 0; Plant response rating, Pigweed [9, 13]: 10; Pigweed plant response rating ([9]; Postemergence, 500 g ai/ha): 80; Plant response rating, Pigweed [9, 14]: 0; Plant response rating, Pigweed [9, 15]: 0; Plant response rating, Rice (0 to 100 scale, 0 is no effect, 100 is complete control) [10]: 75; Plant response rating, Sedge, Umbrella (0 to 100 scale, 0 is no effect, 100 is complete control) [11]: 0; Plant response rating, Barnyardgrass [12, 13]: 0; Barnyardgrass plant response rating ([12]; Postemergence, 500 g ai/ha): 0; Plant response rating, Barnyardgrass [12, 14]: 0; Plant response rating, Barnyardgrass [12, 15]: 0"
Fc1ccc(-n2nc(F)c(Cc3ccnc(C(F)(F)F)c3)n2)cc1 [Compound 159],40,90,40,90,0,30,0,0,60,90,0,0,30,20,30,0,0,20,60,0,"Plant response rating, Velvetleaf [6, 15]: 0; Plant response rating, Crabgrass, Large [7, 13]: 20; Crabgrass, Large plant response rating ([7]; Postemergence, 500 g ai/ha): 40; Plant response rating, Crabgrass, Large [7, 14]: 10; Plant response rating, Crabgrass, Large [7, 15]: 30; Plant response rating, Ducksalad (0 to 100 scale, 0 is no effect, 100 is complete control) [8]: 20; Plant response rating, Pigweed [9, 13]: 90; Pigweed plant response rating ([9]; Postemergence, 500 g ai/ha): 100; Plant response rating, Pigweed [9, 14]: 70; Plant response rating, Pigweed [9, 15]: 90; Plant response rating, Rice (0 to 100 scale, 0 is no effect, 100 is complete control) [10]: 30; Plant response rating, Sedge, Umbrella (0 to 100 scale, 0 is no effect, 100 is complete control) [11]: 60; Plant response rating, Barnyardgrass [12, 13]: 50; Barnyardgrass plant response rating ([12]; Postemergence, 500 g ai/ha): 80; Plant response rating, Barnyardgrass [12, 14]: 10; Plant response rating, Barnyardgrass [12, 15]: 80"

# — patent US9302999B2, “Substituted triazoles as herbicides” (E. I. DU PONT DE NEMOURS AND COMPANY, priority 2012, dated 2016)
